Measurements taken from patent publication US20080188483A1, “Compounds and Compositions as Protein Kinase Inhibitors” (IRM LLC, priority 2006, published 2008).

Key:
[1] = molecular target: T1, FGFR3 (Ba/F3-TEL-FGFR3 cells) (Homo sapiens, UniProt P22607); assay: FGFR3 cellular assay (Ba/F3-TEL-FGFR3 proliferation); type: cell-based
T1 construct: expressed in transfected cells; host or cells: Ba/F3; the other entry of the earlier key: ETV6 (P41212, Transcription factor ETV6)
Procedure: Compounds of the invention are tested for their ability to inhibit transformed Ba/F3-TEL-FGFR3 cells proliferation, which is depended on FGFR3 cellular kinase activity. Ba/F3-TEL-FGFR3 are cultured up to 800,000 cells/mL in suspension, with RPMI 1640 supplemented with 10% fetal bovine serum as the culture medium. Cells are dispensed into 384-well format plate at 5000 cell/well in 50 μL culture medium. Compounds of the invention are dissolved and diluted in dimethylsulfoxide (DMSO). Twelve points 1:3 serial dilutions are made into DMSO to create concentrations gradient ranging typically from 10 mM to 0.05 μM. Cells are added with 50 nL of diluted compounds and incubated for 48 hours in cell culture incubator. AlamarBlue® (TREK Diagnostic Systems), which can be used to monitor the reducing environment created by proliferating cells, are added to cells at final concentration of 10%. After additional four hours of incubation in a 37° C. cell culture incubator, fluorescence signals from reduced AlamarBlue® (Excitation at 530 nm, Emission at 580 nm) are quantified on Analyst GT (Molecular Devices Corp.). IC50 values are calculated by linear regression analysis of the percentage inhibition of each compound at 12 concentrations.

purified FGFR3 (Upstate) = molecular target: T2, purified FGFR3 (Upstate) (Homo sapiens, UniProt P22607); assay: FGFR3 enzymatic assay (HTRF); type: biochemical
T2 construct: purchased Upstate
Procedure: Kinase activity assay with purified FGFR3 (Upstate) is carried out in a final volume of 10 μL containing 0.25 μg/mL of enzyme in kinase buffer (30 mM Tris-HCl pH7.5, 15 mM MgCl2, 4.5 mM MnCl2, 15 μM Na3VO4 and 50 μg/mL BSA), and substrates (5 μg/mL biotin-poly-EY(Glu, Tyr) (CIS-US, Inc.) and 3 μM ATP). Two solutions are made: the first solution of 5 μl contains the FGFR3 enzyme in kinase buffer was first dispensed into 384-format ProxiPlate® (Perkin-Elmer) followed by adding 50 nL of compounds dissolved in DMSO, then 5 μl of second solution contains the substrate (poly-EY) and ATP in kinase buffer was added to each wells. The reactions are incubated at room temperature for one hour, stopped by adding 10 μL of HTRF detection mixture, which contains 30 mM Tris-HCl pH7.5, 0.5 M KF, 50 mM ETDA, 0.2 mg/mL BSA, 15 μg/mL streptavidin-XL665 (CIS-US, Inc.) and 150 ng/mL cryptate conjugated anti-phosphotyrosine antibody (CIS-US, Inc.). After one hour of room temperature incubation to allow for streptavidin-biotin interaction, time resolved florescent signals are read on Analyst GT (Molecular Devices Corp.). IC50 values are calculated by linear regression analysis of the percentage inhibition of each compound at 12 concentrations (1:3 dilution from 50 μM to 0.28 nM).

T2 sequence (P22607 23-806): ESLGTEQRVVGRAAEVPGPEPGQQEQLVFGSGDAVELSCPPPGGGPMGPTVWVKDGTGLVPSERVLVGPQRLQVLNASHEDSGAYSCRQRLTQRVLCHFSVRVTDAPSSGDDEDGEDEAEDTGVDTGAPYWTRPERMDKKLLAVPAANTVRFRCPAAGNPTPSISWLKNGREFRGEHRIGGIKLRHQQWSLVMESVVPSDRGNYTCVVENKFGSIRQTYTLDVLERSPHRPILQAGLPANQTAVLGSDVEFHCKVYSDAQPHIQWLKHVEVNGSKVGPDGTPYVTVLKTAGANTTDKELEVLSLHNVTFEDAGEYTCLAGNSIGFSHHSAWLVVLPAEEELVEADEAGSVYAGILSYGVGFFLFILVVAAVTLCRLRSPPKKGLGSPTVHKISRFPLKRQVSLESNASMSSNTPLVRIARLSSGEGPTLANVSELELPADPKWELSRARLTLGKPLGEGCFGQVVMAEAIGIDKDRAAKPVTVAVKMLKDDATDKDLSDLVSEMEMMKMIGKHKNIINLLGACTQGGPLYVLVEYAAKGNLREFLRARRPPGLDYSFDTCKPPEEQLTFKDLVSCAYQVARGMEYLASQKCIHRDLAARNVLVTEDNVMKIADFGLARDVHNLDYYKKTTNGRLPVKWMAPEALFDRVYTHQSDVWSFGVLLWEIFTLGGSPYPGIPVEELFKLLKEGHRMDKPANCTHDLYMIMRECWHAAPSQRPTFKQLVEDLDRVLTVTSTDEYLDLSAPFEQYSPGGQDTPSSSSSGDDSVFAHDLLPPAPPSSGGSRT
T1 sequence (P22607 472-761 limits assumed): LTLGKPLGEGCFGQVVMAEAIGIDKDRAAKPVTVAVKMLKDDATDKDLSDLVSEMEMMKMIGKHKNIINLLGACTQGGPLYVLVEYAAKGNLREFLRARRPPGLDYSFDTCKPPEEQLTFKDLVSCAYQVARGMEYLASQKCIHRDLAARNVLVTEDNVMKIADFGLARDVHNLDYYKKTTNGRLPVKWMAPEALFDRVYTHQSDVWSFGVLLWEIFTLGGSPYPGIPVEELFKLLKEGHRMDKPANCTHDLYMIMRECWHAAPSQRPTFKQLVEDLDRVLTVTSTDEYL

IC50 [1]: 0.04 µM | IC50 (purified FGFR3 (Upstate)): 0.004 µM
Compound: CCN1CCN(Cc2ccc(NC(=O)c3cc(Nc4nccn4-c4ncnc5[nH]ccc45)cc(OC)c3)cc2C(F)(F)F)CC1 [Compound 9, N-[4-(4-ethyl-piperazin-1-ylmethyl)-3-trifluoromethyl-phenyl]-3-methoxy-5-[1-(7H-pyrrolo[2,3-d]pyrimidin-4-yl)-1H-imidazol-2-ylamino]-benzamide]
